Results reported in patent publication US20120316203A1, “Compositions and Methods for Inhibition of Cancers” (THE OHIO STATE UNIVERSITY RESEARCH FOUNDATION, priority 2009, published 2012).

How the values were obtained:
[1] = test system: Bcl-xL, Bcl-2, survivin, VEGF, and cyclin D1 in A2780 cells; assay: Western blot of STAT3 target proteins; type: cell-based, human; conditions: 10 and 20 μmol/L, 24-hour exposure
Protocol: Equal volumes of DMSO (0.1% v/v) were present in each treatment. Following treatment, the cell lysates were prepared in non-denaturing lysis buffer containing 10 mmol/L Tris-HCl (pH 7.4), 150 mmol/L NaCl, 1% Triton X-100, 1 mmol/L EDTA, 1 mmol/L EGTA, 0.3 mmol/L phenylmethyl-sulfonyl fluoride, 0.2 mmol/L sodium orthovanadate, 0.5% NP40, 1 μg/mL aprotinin, and 1 μg/mL leupetin. The lysates were centrifuged at 10,000×g for 20 minutes at 4° C. and the supernatant was separated. The protein concentration in the lysates was determined using a Pierce detergent-compatible protein assay kit. For Western blotting, 25 to 50 μg of protein lysate per sample were denatured in 2×SDS-PAGE sample buffer and subjected to SDS-PAGE on a 10% tris-glycine gel. The separated proteins were transferred to a polyvinylidene fluoride membrane and were blocked with 5% nonfat milk powder (w/v) in TBST (10 mmol/L Tris, 10 mmol/L NaCl, 0.1% Tween 20) for 1 hour at room temperature or overnight at 4° C. The membranes were then incubated with the primary antibodies. The bound antibodies were detected with horseradish peroxidase-labeled sheep anti-mouse IgG or horseradish peroxidase-labeled donkey anti-rabbit IgG using an enhanced chemiluminescence detection system (ECL Advanced kit). Protein expressions were determined using the Image Gauge v. 3.45 software. […]

[2] = test system: A2780 human ovarian tumor xenograft; assay: Ovarian cancer tumor xenografts in mice, tumor growth; type: in vivo, BALB/c nude mice; conditions: 25, 50, and 100 ppm in feed, 5 weeks; dose-dependent, 50 and 100 ppm more effective
Protocol: Cultured A2780 cancer cells (2×10^6 cells in […] of PBS) were s.c. injected into the back of 6-week-old BALB/c nude mice from the National Cancer Institute. Five to 7 days later, when the tumors reached 3 to 5 mm in diameter, the mice were divided (n=9/group) in a manner to equalize the mean tumor diameter among the groups. The control group was given a normal diet (no treatment), whereas the experimental groups were treated using the DAP compounds mixed with the animal feed (Harlan Teklad) at three different levels (25, 50, and 100 ppm). The doses were chosen based on an initial dose-response study optimized to produce an observable effect on tumor growth. The size of the tumor was measured twice per week using a digital Vernier caliper. The tumor volume was determined from the orthogonal dimensions (d1, d2, d3) using the formula (d1×d2×d3)×π/6. Thirty five days after the beginning of HO-3867 treatment, the mice were sacrificed and the tumors were resected. The tumor tissues were then subjected to immunoblot analysis.

[3] = test system: hOSE cells, HSMC, and HAEC; assay: Cytotoxicity of DAPs to noncancerous cells (MTT); type: cell-based, human
Protocol: Cell viability was determined by a colorimetric assay using MTT. In the mitochondria of living cells, yellow MTT undergoes a reductive conversion to formazan, giving a purple color. Cells, grown to […] confluence in 75-mm flasks, were trypsinized, counted, seeded in 96-well plates with an average population of 7000 cells/well, incubated overnight, and then treated with the DAPs (H-4073, HO-3867, H4318, or HO-4200; […]) for 24 h. All experiments were done using eight replicates and repeated at least three times. Cell viability was expressed as the percentage of MIT viability of untreated cells.

[4] = test system: A2780 and other cancer cells; assay: Metabolic conversion to nitroxide in cancer cells (EPR); type: in vitro ADME, human
Excerpt: The N-hydroxypyrroline (—NOH) moiety is capable of undergoing a reversible one-electron oxidation to its nitroxide form (—NO; FIG. 9A), which is paramagnetic and detectable by EPR spectroscopy.

[5] = Superoxide radical-scavenging by EPR (xanthine/xanthine oxidase, DEPMPO competition); conditions: 100 μM compound versus 1 mM DEPMPO
Protocol: Electron paramagnetic resonance (EPR) spectroscopy was used to quantitatively determine the relative superoxide-scavenging ability of the DAPs in comparison with DEPMPO, a known superoxide scavenger. Superoxide radicals were generated using an aerated solution of PBS (pH 7.4) containing xanthine (0.2 mM), xanthine oxidase (0.02 U/ml), and diethylenetriamine pentaacetic acid (0.1 mM). The superoxide radicals (O2^−) generated by the xanhine-xanthine oxidase reaction were reacted with DEPMPO (1 mM) to form a paramagnetic adduct (DEPMPO-OOH), which was detected using X-band (9.8 GHz) EPR spectroscopy. In separate experimental groups, […], or SOD (500 U/ml) was added to the reaction mixture. […] The generation of the DEPMPO-OOH adduct was measured at 10 min after initiation of the reaction.
Both N-hydroxypyrroline and nitroxide have antioxidant properties including SOD- and catalase-mimetic activity. Therefore, we determined the superoxide radical-scavenging ability of DAPs using a competitive reaction in the presence of DEPMPO. Superoxide radicals were generated using an aerobic solution of xanthine and xanthine oxidase and detected as DEPMPO-OOH adduct by EPR spectroscopy. The DAP compounds (100 μM) were used to compete with 1 mM DEPMPO for the superoxide ions. SOD (4.2 μM) was used as a positive control.

[6] = test system: A2780 and SKOV3 cells; assay: Cell-migration (wound-healing) assay; type: cell-based, human; conditions: 10 μM
Protocol: (§1) Cell-migration assay was performed by wound-healing method. Cells were plated at equal density and grown to 90% confluence. Wounds were created using a sterile pipette tip. Cells were then rinsed with medium and replaced with the fresh medium and incubated with HO-3867 (10 μM). Areas of wound were marked and photographed at various time-points with a phase-contrast microscope. Cell-invasive assay was measured by an in vitro Boyden chamber assay. Briefly, 1×10^5 cells in 0.5 ml of serum-free RPMI 1640 medium were added to the wells of 8-μm-diameter pore membrane Boyden chambers, either coated with (BD Biosciences, Franklin Lake, N.J.) or without (Corning, Corning, N.Y.) Matrigel. Cells were allowed to invade for 24 hours. Cells that had not penetrated the filters were removed by scrubbing with cotton swabs. Chambers were fixed in 100% methanol for 2 min, stained in 0.5% crystal violet for 2 min, rinsed in PBS and examined using a bright-field microscope. Values for invasion were obtained by counting five fields per membrane and represented as the average of three independent experiments performed over multiple days.

[7] = test system: A2780 and SKOV3 cells; assay: Cell-invasion (Boyden chamber) assay; type: cell-based, human; conditions: 10 μM
Protocol: as §1

[8] = 24 hours, versus untreated cells
[9] = 24-h incubation, versus VEGF group

CC1(C)C=C(CN2C/C(=C\c3ccc(F)cc3)C(=O)/C(=C/c3ccc(F)cc3)C2)C(C)(C)N1O [HO-3867, 1-[(1-oxyl-2,2,5,5-tetramethyl-2,5-dihydro-1H-pyrrol-3-yl)methyl]-(3E,5E)-3,5-bis(4-fluorobenzylidene)piperidin-4-one]
Bcl-xL, Bcl-2, survivin, and VEGF levels [1]: clear reduction | cyclin D1 level [1]: no significant change | tumor volume [2]: significant reduction | cell viability of noncancerous (healthy) human cell lines ([3]; 10 NM, 24-h incubation): significantly less toxic | viability of hOSE cells ([3]; same dose for both compounds): very little effect | EPR signal intensity of the nitroxide metabolite in A2780 cells compared to PBS [4]: fivefold increase | EPR spectrum (nitroxide signal) after incubation with A2780 cells ([4]; 37° C., EPR): characteristic triplet feature | diminution of the DEPMPO-OOH concentration [5]: −50% | cell migration [6, 8]: significant inhibition | VEGF-induced migration [6, 9]: significantly inhibited | cell invasion [7, 8]: significant inhibition | VEGF-induced invasion [7, 9]: significantly inhibited
